Laboratory results: ChEMBL document CHEMBL2146447, “Synthesis and antimicrobial activity of amido linked pyrrolyl and pyrazolyl-oxazoles, thiazoles and imidazoles” (2011)
Activity calls are given as the source filed them. No cut-off for these calls is given here.

Experiments:
Format in all cases: functional
[1] = test system: Staphylococcus aureus; experiment: Antibacterial activity against Staphylococcus aureus assessed at 50 ug after 24 hrs by agar well diffusion method; settings: read-out: DIZ
[2] = test system: Staphylococcus aureus; experiment: Antibacterial activity against Staphylococcus aureus at 100 ug after 24 hrs by agar well diffusion method; settings: read-out: DIZ
[3] = test system: Bacillus subtilis; experiment: Antibacterial activity against Bacillus subtilis at 50 ug after 24 hrs by agar well diffusion method; settings: read-out: DIZ
[4] = test system: Bacillus subtilis; experiment: Antibacterial activity against Bacillus subtilis at 100 ug after 24 hrs by agar well diffusion method; settings: read-out: DIZ
[5] = test system: Pseudomonas aeruginosa; experiment: Antibacterial activity against Pseudomonas aeruginosa at 50 ug after 24 hrs by agar well diffusion method; settings: for zone of inhibition at 50 µg/disc: read-out: DIZ
[6] = test system: Pseudomonas aeruginosa; experiment: Antibacterial activity against Pseudomonas aeruginosa at 100 ug after 24 hrs by agar well diffusion method; settings: for zone of inhibition at 100 µg/disc: read-out: DIZ
[7] = test system: Klebsiella pneumoniae; experiment: Antibacterial activity against Klebsiella pneumoniae at 50 ug after 24 hrs by agar well diffusion method; settings: for zone of inhibition at 50 µg/disc: read-out: DIZ
[8] = test system: Klebsiella pneumoniae; experiment: Antibacterial activity against Klebsiella pneumoniae at 100 ug after 24 hrs by agar well diffusion method; settings: for zone of inhibition at 100 µg/disc: read-out: DIZ
[9] = test system: Aspergillus niger; experiment: Antifungal activity against Aspergillus niger at 50 ug after 48 hrs by agar well diffusion method; settings: for zone of inhibition at 50 µg/disc: read-out: DIZ
[10] = test system: Aspergillus niger; experiment: Antifungal activity against Aspergillus niger at 100 ug after 48 hrs by agar well diffusion method; settings: for zone of inhibition at 100 µg/disc: read-out: DIZ
[11] = test system: Penicillium chrysogenum; experiment: Antifungal activity against Penicillium chrysogenum at 50 ug after 48 hrs by agar well diffusion method; settings: for zone of inhibition at 50 µg/disc: read-out: DIZ
[12] = test system: Penicillium chrysogenum; experiment: Antifungal activity against Penicillium chrysogenum at 100 ug after 48 hrs by agar well diffusion method; settings: for zone of inhibition at 100 µg/disc: read-out: DIZ

Question: With `O=C(Nc1nc(-c2ccc(Cl)cc2)cs1)c1c[nH]cc1-c1ccccc1` as the compound, how does the zone of inhibition at 50 µg/disc [1] read?
Answer: 26 mm

Question: And the zone of inhibition at 100 µg/disc [2]?
Answer: 27 mm

Question: What about the zone of inhibition at 50 µg/disc [3] of the same compound?
Answer: 27 mm

Question: What about the zone of inhibition at 100 µg/disc [4] of the same compound?
Answer: 29 mm

Question: And the zone of inhibition at 50 µg/disc [5]?
Answer: 23 mm

Question: What about the zone of inhibition at 100 µg/disc [6] of the same compound?
Answer: 25 mm

Question: And the zone of inhibition at 50 µg/disc [7]?
Answer: 29 mm

Question: And the zone of inhibition at 100 µg/disc [8]?
Answer: 30 mm

Question: What about the zone of inhibition at 50 µg/disc [9] of the same compound?
Answer: 29 mm

Question: And the zone of inhibition at 100 µg/disc [10]?
Answer: 31 mm

Question: What about the zone of inhibition at 50 µg/disc [11] of the same compound?
Answer: 30 mm

Question: And the zone of inhibition at 100 µg/disc [12]?
Answer: 33 mm

Question: For `O=C(Nc1nc(-c2ccccc2)cs1)C1=NNCC1c1ccccc1` (centres undefined), which zone of inhibition at 50 µg/disc [1] is on record?
Answer: 13 mm

Question: And the zone of inhibition at 100 µg/disc [2]?
Answer: 15 mm

Question: What about the zone of inhibition at 50 µg/disc [3] of the same compound?
Answer: 14 mm

Question: What about the zone of inhibition at 100 µg/disc [4] of the same compound?
Answer: 16 mm

Question: And the “diameter of the inhibition zone (DIZ)” value [5]?
Answer: inactive

Question: And the “diameter of the inhibition zone (DIZ)” value [6]?
Answer: inactive

Question: What about the “diameter of the inhibition zone (DIZ)” value [7] of the same compound?
Answer: inactive

Question: And the “diameter of the inhibition zone (DIZ)” value [8]?
Answer: inactive

Question: And the “diameter of the inhibition zone (DIZ)” value [9]?
Answer: inactive

Question: What about the “diameter of the inhibition zone (DIZ)” value [10] of the same compound?
Answer: inactive

Question: And the “diameter of the inhibition zone (DIZ)” value [11]?
Answer: inactive

Question: What about the “diameter of the inhibition zone (DIZ)” value [12] of the same compound?
Answer: inactive

Question: How did the zone of inhibition at 50 µg/disc [1] turn out when `O=C(Nc1nc(-c2ccc(Cl)cc2)co1)c1n[nH]cc1-c1ccccc1` was run?
Answer: 20 mm

Question: What about the zone of inhibition at 100 µg/disc [2] of the same compound?
Answer: 23 mm

Question: What about the zone of inhibition at 50 µg/disc [3] of the same compound?
Answer: 21 mm

Question: What about the zone of inhibition at 100 µg/disc [4] of the same compound?
Answer: 22 mm

Question: What about the zone of inhibition at 50 µg/disc [5] of the same compound?
Answer: 19 mm

Question: What about the zone of inhibition at 100 µg/disc [6] of the same compound?
Answer: 21 mm

Question: What about the zone of inhibition at 50 µg/disc [7] of the same compound?
Answer: 23 mm

Question: And the zone of inhibition at 100 µg/disc [8]?
Answer: 24 mm

Question: And the zone of inhibition at 50 µg/disc [9]?
Answer: 24 mm

Question: What about the zone of inhibition at 100 µg/disc [10] of the same compound?
Answer: 27 mm

Question: What about the zone of inhibition at 50 µg/disc [11] of the same compound?
Answer: 26 mm

Question: What about the zone of inhibition at 100 µg/disc [12] of the same compound?
Answer: 29 mm

Question: What does the source list for `O=C(Nc1nc(-c2ccc(Cl)cc2)co1)C1=NNCC1c1ccccc1` (centres undefined)?
Answer: zone of inhibition at 50 µg/disc [1]: 17 mm; zone of inhibition at 100 µg/disc [2]: 18 mm; zone of inhibition at 50 µg/disc [3]: 17 mm; zone of inhibition at 100 µg/disc [4]: 20 mm; zone of inhibition at 50 µg/disc [5]: 17 mm; zone of inhibition at 100 µg/disc [6]: 19 mm; zone of inhibition at 50 µg/disc [7]: 22 mm; zone of inhibition at 100 µg/disc [8]: 24 mm; zone of inhibition at 50 µg/disc [9]: 23 mm; zone of inhibition at 100 µg/disc [10]: 25 mm; zone of inhibition at 50 µg/disc [11]: 24 mm; zone of inhibition at 100 µg/disc [12]: 27 mm

Question: Which results are given for `O=C(Nc1nc(-c2ccccc2)cs1)c1c[nH]cc1-c1ccccc1`?
Answer: zone of inhibition at 50 µg/disc [1]: 17 mm; zone of inhibition at 100 µg/disc [2]: 19 mm; zone of inhibition at 50 µg/disc [3]: 20 mm; zone of inhibition at 100 µg/disc [4]: 22 mm; zone of inhibition at 50 µg/disc [5]: 15 mm; zone of inhibition at 100 µg/disc [6]: 16 mm; zone of inhibition at 50 µg/disc [7]: 22 mm; zone of inhibition at 100 µg/disc [8]: 24 mm; zone of inhibition at 50 µg/disc [9]: 18 mm; zone of inhibition at 100 µg/disc [10]: 20 mm; zone of inhibition at 50 µg/disc [11]: 19 mm; zone of inhibition at 100 µg/disc [12]: 22 mm

Question: What does the source list for `Cc1ccc(-c2c[nH]c(NC(=O)/C=C/c3ccccc3)n2)cc1`?
Answer: zone of inhibition at 50 µg/disc [1]: 18 mm; zone of inhibition at 100 µg/disc [2]: 20 mm; zone of inhibition at 50 µg/disc [3]: 21 mm; zone of inhibition at 100 µg/disc [4]: 23 mm; zone of inhibition at 50 µg/disc [5]: 14 mm; zone of inhibition at 100 µg/disc [6]: 16 mm; zone of inhibition at 50 µg/disc [7]: 23 mm; zone of inhibition at 100 µg/disc [8]: 25 mm; zone of inhibition at 50 µg/disc [9]: 18 mm; zone of inhibition at 100 µg/disc [10]: 21 mm; zone of inhibition at 50 µg/disc [11]: 20 mm; zone of inhibition at 100 µg/disc [12]: 23 mm

Question: For `O=C(Nc1nc(-c2ccccc2)c[nH]1)c1n[nH]cc1-c1ccccc1`, which zone of inhibition at 50 µg/disc [1] is on record?
Answer: 8 mm

Question: And the zone of inhibition at 100 µg/disc [2]?
Answer: 10 mm

Question: What about the zone of inhibition at 50 µg/disc [3] of the same compound?
Answer: 10 mm

Question: What about the zone of inhibition at 100 µg/disc [4] of the same compound?
Answer: 13 mm

Question: What about the zone of inhibition at 50 µg/disc [5] of the same compound?
Answer: 9 mm

Question: And the zone of inhibition at 100 µg/disc [6]?
Answer: 11 mm

Question: What about the zone of inhibition at 50 µg/disc [7] of the same compound?
Answer: 12 mm

Question: And the zone of inhibition at 100 µg/disc [8]?
Answer: 14 mm

Question: What about the zone of inhibition at 50 µg/disc [9] of the same compound?
Answer: 8 mm

Question: What about the zone of inhibition at 100 µg/disc [10] of the same compound?
Answer: 10 mm

Question: And the zone of inhibition at 50 µg/disc [11]?
Answer: 9 mm

Question: What about the zone of inhibition at 100 µg/disc [12] of the same compound?
Answer: 12 mm
